Holding throughout (assay type): functional, cell-based
For assay [1], the system named is KB. As to the kind of experiment: In vitro antitumor activity against human epidermoid carcinoma KB cells by MTT assay. (Tetrazolium assays rely on reduction of a dye to a coloured formazan, in cell work by metabolically active cells.)
For assay [2], the system named is L1210. Put plainly: In vitro antitumor activity against murine lymphoma L1210 cells by MTT assay. Conditions: Mus musculus.
Assay [3] deals with L1210. As to the kind of experiment: In vitro antitumor activity against murine lymphoma L1210 cells by using MTT assay; No significant cytotoxicity. Conditions: Mus musculus.
Assay [4] relates to KB. As to the kind of experiment: In vitro antitumor activity against human epidermoid carcinoma KB cells by using MTT assay; No significant cytotoxicity.

pIC50: −log10 of the molar value.

`CCCCCCCCCCCCn1c2nc(=O)n(C)c(=O)c-2cc2ccc([N+](=O)[O-])cc21`: the pIC50 – broadly, the IC50 on a negative log10 scale, so that one unit is a factor of ten – in the assay on KB [1] is 5.10; with L1210 [2] it was 5.28.

On to `CCCCCCCCCCCCn1c2nc(=O)n(C)c(=O)c-2cc2cccnc21`, for which the negative-log IC50 (pIC50) with L1210 [3] and in the assay with KB [4] was less than 3.70 in each case.

On to `CCCCCCCCCCCCn1c2nc(=O)[nH]c(=O)c-2cc2cccc([N+](=O)[O-])c21`, for which the figures for the pIC50 with KB [1] and in the assay with L1210 [2] were 5.59 and 5.74, respectively.

Take `CCCCCCCCn1c2nc(=O)n(-c3ccccc3)c(=O)c-2cc2cc([N+](=O)[O-])ccc21`: the pIC50 is 5.12 with KB [1] and 5.02 in the assay with L1210 [2].

On to `CCCCCCCCCCCCn1c2nc(=O)[nH]c(=O)c-2cc2ccccc21`, for which the pIC50 with L1210 [3] and with KB [4] was less than 3.70 throughout.

Take `CCCCCCCCCCCCn1c2nc(=O)n(C)c(=O)c-2cc2ccccc21`: the pIC50 in the assay with L1210 [3] and with KB [4] was less than 3.70 throughout.

In the case of `CCCCCCCCn1c2nc(=O)n(-c3ccccc3)c(=O)c-2cc2ncccc21`, the pIC50 in the assay with L1210 [3] and in the assay on KB [4] was less than 3.70 in each case.

As for `CO[C@@]12[C@H](COC(N)=O)C3=C(C(=O)C(C)=C(N)C3=O)N1C[C@@H]1N[C@@H]12` [MITOMYCIN], the pIC50 with KB [1] is 6.40; with L1210 [2], 6.22.

Take `CCCCCCCCCCCCn1c2nc(=O)[nH]c(=O)c-2cc2cc([N+](=O)[O-])ccc21`: the pIC50 with KB [1] was 4.58; with L1210 [2] it was 5.17.

In the case of `CCCCCCCCCCCCn1c2nc(=O)[nH]c(=O)c-2cc2c([N+](=O)[O-])cccc21`, the pIC50 with KB [1] was 5.49; with L1210 [2] it was 6.40.

Take `CCCCCCCCn1c2nc(=O)n(CC(=O)OCC)c(=O)c-2cc2cccc([N+](=O)[O-])c21`: the pIC50 in the assay with KB [1] is 5.44; in the assay on L1210 [2] it was 5.40.

Consider `CCCCCCCCCCCCn1c2nc(=O)n(C)c(=O)c-2cc2cc([N+](=O)[O-])ccc21`, for which the figures for the pIC50 in the assay with KB [1] and in the assay on L1210 [2] were 4.80 and 4.67, respectively.

For the compound `CCCCCCCCn1c2nc(=O)n(CC(=O)OCC)c(=O)c-2cc2ccccc21`, the pIC50 with L1210 [3] and in the assay with KB [4] was less than 3.70 in each case.

`CCCCCCCCn1c2nc(=O)n(-c3ccccc3)c(=O)c-2cc2cccc([N+](=O)[O-])c21`: the pIC50 with KB [1] is 5.22; with L1210 [2] it was 5.82.

Take `CCCCCCCCCCCCn1c2nc(=O)[nH]c(=O)c-2cc2ccc(C(F)(F)F)cc21`: the pIC50 in the assay on L1210 [3] and with KB [4] was less than 3.70 throughout.

For the compound `CCCCCCCCCCCCn1c2nc(=O)n(C)c(=O)c-2cc2cccc([N+](=O)[O-])c21`, the pIC50 was 4.70 in the assay with KB [1] and 5.11 in the assay with L1210 [2].

`CCCCCCCCn1c2nc(=O)n(-c3ccccc3)c(=O)c-2cc2ccc([N+](=O)[O-])cc21`: the results for the pIC50 in the assay with KB [1] and in the assay with L1210 [2] were 4.91 and 5.59, respectively.

Regarding `CCCCCCCCn1c2nc(=O)n(CC(=O)OCC)c(=O)c-2cc2ccc([N+](=O)[O-])cc21`, the pIC50 in the assay on KB [1] was 5.12; with L1210 [2], 5.08.

Regarding `CCCCCCCCCCCCn1c2nc(=O)[nH]c(=O)c-2cc2cc(C(F)(F)F)ccc21`, the pIC50 in the assay on L1210 [3] and in the assay on KB [4] was less than 3.70 throughout.

For `CCCCCCCCCCCCn1c2nc(=O)n(C)c(=O)c-2cc2c([N+](=O)[O-])cccc21`, the pIC50 in the assay with KB [1] is 5.17; with L1210 [2], 5.80.

For the compound `CCCCCCCCn1c2nc(=O)n(CC(=O)OCC)c(=O)c-2cc2c([N+](=O)[O-])cccc21`, the figures for the pIC50 in the assay on KB [1] and in the assay on L1210 [2] were 5.12 and 5.52, respectively.

`CCCCCCCCCCCCn1c2nc(=O)[nH]c(=O)c-2cc2ccc([N+](=O)[O-])cc21`: the pIC50 in the assay on KB [1] is 4.89; in the assay with L1210 [2] it was 5.60.

Regarding `CCCCCCCCn1c2nc(=O)n(CC(=O)OCC)c(=O)c-2cc2cc([N+](=O)[O-])ccc21`, the results for the pIC50 in the assay on KB [1] and in the assay on L1210 [2] were 4.52 and 4.92, respectively.

As to `CCCCCCCCCCCCn1c2nc(=O)n(C)c(=O)c-2cc2ncccc21`, the pIC50 in the assay with L1210 [3] and in the assay on KB [4] was less than 3.70 throughout.

On to `CCCCCCCCn1c2nc(=O)n(-c3ccccc3)c(=O)c-2cc2c([N+](=O)[O-])cccc21`, for which the values for the pIC50 in the assay on KB [1] and in the assay with L1210 [2] were 5.08 and 5.59, respectively.

For `CCCCCCCCn1c2nc(=O)n(-c3ccccc3)c(=O)c-2cc2ccccc21`, the pIC50 in the assay on L1210 [3] and with KB [4] was less than 3.70 each time.

In the case of `CCCCCCCCn1c2nc(=O)n(-c3ccccc3)c(=O)c-2cc2cccnc21`, the pIC50 in the assay with L1210 [3] and with KB [4] was less than 3.70 throughout.
